# “Also recorded” adds a separate entry of the source. Ends that are not written are not given here.
# Key:
# [1] = test system: un-induced FlpIn-TREx-HEK293-mGPRC6A cells; assay: Label-free cell impedance, un-induced FlpIn-TREx-HEK293-mGPRC6A cells; type: cell-based; details: Fig 4
# Method: (§1) 2.5 x 10^7 FlpIn-TREx-HEK293-mGPRC6A cells were seeded in a T175 flask and incubated overnight at 37°C in 5% CO2. Cells were then transfected with 35 μg of plasmid DNA (GαqG66D) with Lipofectamine LTX according to manufacturer's instructions, then incubated for 24h at 37°C in 5% CO2. Prior to the experiment, a background reading for each E-plate 96 (Bio-Rad, CA, USA) was measured after addition of 100 μl DMEM + 10% FBS per well. Cells were recovered using Versene and seeded at a 10^5 cells/well density in 200 μl DMEM + 10% FBS (containing 1 μg/ml tetracycline where indicated). Cells were washed 2 x 2 h in HBSS buffer (pH 7.2) containing 20 mM HEPES, 1 mM CaCl2 and 0.1% BSA (w/v) in a total volume of 180 μl. Test compounds (20 μl at 10x final concentration) were added to the plate and cell impedance was monitored for 3 h. Cell index was normalised to the buffer response (minus the baseline response at zero time point).
# [2] = biological target: T1, mGPRC6A (mouse GPRC6A) (Mus musculus, UniProt Q8K4Z6); assay: Label-free cell impedance (xCELLigence), tetracycline-induced FlpIn-TREx-HEK293-mGPRC6A cells; type: cell-based; details: tetracycline-induced; xCELLigence; Fig 4
# T1 sequence (Q8K4Z6 21-928): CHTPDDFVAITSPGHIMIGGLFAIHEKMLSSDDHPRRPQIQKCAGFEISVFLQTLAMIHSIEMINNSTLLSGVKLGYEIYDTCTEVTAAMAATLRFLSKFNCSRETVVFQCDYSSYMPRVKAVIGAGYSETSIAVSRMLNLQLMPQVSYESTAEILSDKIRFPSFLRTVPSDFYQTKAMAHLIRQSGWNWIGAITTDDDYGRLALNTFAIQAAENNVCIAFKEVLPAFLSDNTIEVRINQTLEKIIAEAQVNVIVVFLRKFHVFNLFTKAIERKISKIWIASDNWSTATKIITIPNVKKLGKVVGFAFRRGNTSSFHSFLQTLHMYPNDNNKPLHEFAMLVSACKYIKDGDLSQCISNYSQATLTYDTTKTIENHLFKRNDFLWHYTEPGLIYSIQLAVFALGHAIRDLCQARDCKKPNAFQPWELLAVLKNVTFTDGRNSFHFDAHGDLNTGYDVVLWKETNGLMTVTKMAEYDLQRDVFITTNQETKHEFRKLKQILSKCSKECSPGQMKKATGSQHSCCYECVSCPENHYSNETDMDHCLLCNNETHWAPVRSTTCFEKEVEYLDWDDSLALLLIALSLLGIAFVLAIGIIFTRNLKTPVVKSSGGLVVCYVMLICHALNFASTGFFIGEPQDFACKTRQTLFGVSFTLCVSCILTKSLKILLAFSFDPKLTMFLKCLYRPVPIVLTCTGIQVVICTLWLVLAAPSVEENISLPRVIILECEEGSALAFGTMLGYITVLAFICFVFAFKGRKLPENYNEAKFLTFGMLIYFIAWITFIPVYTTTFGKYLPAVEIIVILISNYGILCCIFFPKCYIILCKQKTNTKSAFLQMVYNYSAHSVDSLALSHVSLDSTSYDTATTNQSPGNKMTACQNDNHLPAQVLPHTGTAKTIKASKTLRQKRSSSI
# Method: as §1
# (§2) Concentration-response data were analysed using a three or four parameter logistic function (Motulsky & Christopoulos, 2004) to generate estimates of agonist potency (LogEC50). Data for all HEK293 assays represent the mean ± SEM of at least three independent experiments (except cell impedance, n = 2). For GLP-1 release, the data represent mean ± SEM of three to five independent experiments (except for OCN, wash; n = 2). For insulin release assays, data represent the mean ± SEM of three independent experiments (except for islet studies; n = 2). Insulin release data were normalised to the response to vehicle in either low or high [glucose]. Statistical analysis for GLP-1 release data were performed by one-way ANOVA, followed by Sidak’s multiple comparisons test (treating wash / no wash datasets separately). Statistical analyses for insulin release data were performed by two-way ANOVA (with [glucose] and drug treatment as group variables), followed by Sidak’s multiple comparisons test. Where only high [glucose] groups were evaluated, statistical analysis was by one-way ANOVA followed by Sidak’s multiple comparisons test.
# [3] = test system: INS-1(832) cells; assay: Label-free cell impedance, INS-1(832) cells; type: cell-based, rat; details: Gprc6a-negative, EBSS, 2.8 mM glucose, Fig 7, two-way ANOVA, *P < 0.05, **P < 0.01 vs Vehicle
# Method: For INS-1 cells, 100 μl of medium (RPMI 1640 no glucose, 10% FBS, 55 μM β-mercaptoethanol, 1 mM sodium pyruvate, 10 mM HEPES, 100 U/ml penicillin, 100 μg/ml streptomycin, 11.1 mM glucose) was added per well to an E-plate 96 and a background reading taken. Cells were seeded at 2 x 10^4 / well and the plates incubated in the instrument for 48 h. On the day of the experiment, media was changed to EBSS buffer (180 μl; 2.8 mM glucose, 1.8 mM CaCl2, 5.3 mM KCl, 0.8 mM MgSO4, 117 mM NaCl, 26 mM NaHCO3, 1 mM NaH2PO4). After 2 h incubation, cells were stimulated with 20 μl test compound (10 x final) prepared in the same buffer. Data capture and analysis were as for HEK293 cells.
# [4] = test system: MIN6 cells; assay: Insulin release from MIN6 cells; type: cell-based, murine; details: 16.7 mM glucose; P < 0.0001, two-way ANOVA; Fig 6B
# Method: (§3) MIN6 or βTC-6 cells were seeded in 24-well plates at 170,000 cells per well in DMEM (containing 4.5g/L glucose, 10 mM HEPES, 100 U/ml penicillin, 100 μg/ml streptomycin and 15% de-complemented FBS) and incubated at 37°C / 5% CO2 for 72 h. Cells were then washed with 500 μl PBS and incubated in 500 μl deprivation media (DMEM with zero glucose, 10 mM HEPES, 1 mM Na-pyruvate, 100 U/ml penicillin, 100 μg/ml streptomycin, 15% de-complemented FBS) for 2 h at 37°C. Media was aspirated and after washing with 500 μl PBS, cells were treated with 250 μl of Krebs buffer (250 mM NaCl, 5.9 mM KCl, 1.2 mM MgCl2, 1.3 mM CaCl2, 25 mM HEPES, 0.1% BSA (w/v), and 2 mM or 16.7 mM glucose; pH 7.4) in the presence or absence of test compound. After incubation for 2 h at 37°C, the assay was terminated by placing the plates on ice and supernatants were transferred to a 96-well plate in preparation for insulin ELISA (Alpco) following manufacturer’s instructions. The cell monolayer was washed twice with 500 μl of PBS and then lysed using 250 μl of 1 N NaOH prior to protein measurement by the method of Bradford (1976).
# as §2
# [5] = test system: mouse pancreatic islets; assay: Insulin release from mouse pancreatic islets; type: cell-based; details: n = 2; P < 0.001, P < 0.0001; S3 Fig B
# Method: Islets were collagenase-isolated from mice (10 x C57Bl/6; 12–13 weeks; Charles River) and incubated overnight in RPMI (with 10% FBS (v/v), 10 mM HEPES, 100 U/ml penicillin, 100 μg/ml streptomycin, sodium pyruvate and 10 mM glucose) at 37°C in 5% CO2. Islets were seeded into a 96-well plate (4 / well) in Kreb’s buffer containing 2.8 mM glucose and washed twice with the same buffer. 200 μl test drugs were added in Kreb’s buffer with the required concentration of glucose and incubated at 37°C in 5% CO2 for 90 min. The plate was centrifuged for 10 s at 200 g, supernatant recovered and insulin levels detected as described above. This protocol was approved by the IDRS (Institut de Recherches Servier) Institutional Animal Care and Use Committee.
# as §2
# [6] = test system: β-TC6 cells; assay: Insulin release from β-TC6 cells; type: cell-based, murine; details: P < 0.001, P < 0.0001, two-way ANOVA, S3 Fig A
# Method: as §3, §2
# [7] = test system: 22RV1 / PC-3; details: endogenous; ref [9] (supplement list); cited from earlier work
# Source text: (§4) Supplement pone.0146846.s004.docx, table 1 | column: Functional assay
# [8] = test system: hC6A; details: ref [9] (supplement list); cited from earlier work
# Source text: as §4
compound,measurement,setting,value
"Bovine OCN: Purified bovine osteocalcin from bone (Meridian Life Science), carboxylated / under-carboxylated (YLDHWLGAPAPYPDPLEPKREVCELNPDCDELADHIGFQEAYRRFYGPV; ends and bridges not checked; also: γ-carboxyglutamic acid residues, partially carboxylated)",cell impedance (cell index) response,[1],did not change cell impedance
same,cell impedance (cell index) response,[2],did not change cell impedance
same,change in cell impedance (cell index),[3],"significant, concentration-dependent activity"
same,change in cell impedance (cell index),[3]; listed as purified bovine OCN,significant changes in cell impedance; also recorded: Concentration-dependent increases in cell index
Nc1ncnc2c1ncn2[C@@H]1O[C@H](COP(=O)(O)OP(=O)(O)OP(=O)(O)O)[C@@H](O)[C@H]1O [ATP],cell impedance (cell index) response,[1],concentration-dependent increase in cell index; also recorded: increases cellular impedance
same,cell impedance (cell index) response,[2],concentration-dependent increase in cell index; also recorded: increases cellular impedance
OC[C@H]1OC(O)[C@H](O)[C@@H](O)[C@@H]1O (stereo partly drawn) [glucose],"insulin secretion, glucose effect",[4],significantly promoted insulin secretion; also recorded: significantly enhanced insulin secretion
same,"insulin secretion, glucose effect",[5],released insulin in a glucose-sensitive manner; also recorded: significantly enhanced insulin secretion
same,"insulin secretion, glucose effect",[6],released insulin in a glucose-sensitive manner
same,"insulin secretion, glucose effect",[6]; listed as Glucose,significantly enhanced insulin secretion
[Cl-].[Cl-].[Zn+2] [ZnCl2],pERK1/2 response,[7],"pERK1/2 – response to Ca^2+, ZnCl2, OCN, Arginine, Testosterone-BSA Proliferation – response to Ca^2+, OCN PSA, Runx2 expression – response to OCN, Arg, R1881 Chemotaxis (22RV1) – response to Ca^2+, OCN"
same,pERK1/2 response,[8],"pERK1/2 – response to Ca^2+, ZnCl2, OCN, Arginine, Testosterone-BSA"
